Assay results taken from patent US10239843B2 (CANCER RESEARCH TECHNOLOGY LIMITED, priority 2014, dated 2019).
Where two headings read alike, the source gives them in different places.

Legend:
Human Full Length PARG = Human Full Length PARG (Homo sapiens (Human), UniProt Q86W56); assay: PARG enzyme assay (TR-FRET); format: biochemical; settings: read-out: PARG Biochem IC50
PARG in HeLa cell line = assay: PARG cell assay (PAR chain immunofluorescence after MMS); format: cell-based; settings: HeLa cells, MMS treatment, read-out: PARG Cell IC50
In short: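 HeLa cells were dosed with compound for 1 h, then given MMS at 50 μg/mL final for a further hour. Cells were methanol-fixed, permeabilised and stained overnight at 4° C with anti-PAR monoclonal antibody. Retained nuclear PAR chains, detected by indirect immunofluorescence, indicate PARG inhibition.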

Sequence of Human Full Length PARG (Q86W56 whole entry): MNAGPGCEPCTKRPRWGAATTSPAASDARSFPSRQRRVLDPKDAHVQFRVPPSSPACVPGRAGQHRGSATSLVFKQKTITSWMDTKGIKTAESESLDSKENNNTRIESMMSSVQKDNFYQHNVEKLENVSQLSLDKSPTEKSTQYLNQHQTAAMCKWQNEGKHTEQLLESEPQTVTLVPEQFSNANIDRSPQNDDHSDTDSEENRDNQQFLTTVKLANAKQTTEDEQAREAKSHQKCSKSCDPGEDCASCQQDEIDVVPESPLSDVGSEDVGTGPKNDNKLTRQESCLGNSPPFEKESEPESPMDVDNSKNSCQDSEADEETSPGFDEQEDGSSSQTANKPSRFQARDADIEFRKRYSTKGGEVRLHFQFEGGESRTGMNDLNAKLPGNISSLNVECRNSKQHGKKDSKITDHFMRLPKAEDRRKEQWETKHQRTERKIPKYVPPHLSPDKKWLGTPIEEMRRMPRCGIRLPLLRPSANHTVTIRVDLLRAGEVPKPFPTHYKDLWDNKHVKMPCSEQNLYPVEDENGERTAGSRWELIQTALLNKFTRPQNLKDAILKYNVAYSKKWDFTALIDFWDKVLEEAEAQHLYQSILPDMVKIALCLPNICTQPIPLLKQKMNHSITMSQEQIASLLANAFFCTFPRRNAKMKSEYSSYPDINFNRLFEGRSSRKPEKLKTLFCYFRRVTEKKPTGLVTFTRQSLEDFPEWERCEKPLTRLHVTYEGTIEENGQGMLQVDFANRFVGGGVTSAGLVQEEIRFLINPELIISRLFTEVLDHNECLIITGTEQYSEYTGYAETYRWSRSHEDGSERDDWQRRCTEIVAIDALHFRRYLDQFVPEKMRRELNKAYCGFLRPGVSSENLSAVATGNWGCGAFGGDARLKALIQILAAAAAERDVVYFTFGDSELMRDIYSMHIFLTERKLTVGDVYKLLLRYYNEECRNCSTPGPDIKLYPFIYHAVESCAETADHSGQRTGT

Cn1cc(Cn2c(=O)c3cc(S(=O)(=O)NC4(CF)CC4)ccc3n(Cc3c[nH]cn3)c2=O)cn1 [Example 575, N-[1-(Fluoromethyl)cyclopropyl]-1-(1H-imidazol-4-ylmethyl)-3-[(1-methylpyrazol-4-yl)methyl]-2,4-dioxo-quinazoline-6-sulfonamide]
IC50 (Human Full Length PARG): 88 nM | IC50 (PARG in HeLa cell line; Homo sapiens): 1570 nM

CCn1cncc1Cn1c(=O)n(Cc2cnn(C)c2)c(=O)c2cc(S(=O)(=O)NC3(CF)CC3)ccc21 [Example 576, 1-[(3-Ethylimidazol-4-yl)methyl]-N-[1-(fluoromethyl)cyclopropyl]-3-[(1-methylpyrazol-4-yl)methyl]-2,4-dioxo-quinazoline-6-sulfonamide]
IC50 (Human Full Length PARG): 42 nM | IC50 (PARG in HeLa cell line; Homo sapiens): 2160 nM

Cn1cc(Cn2c(=O)c3cc(S(=O)(=O)NC4(CF)CC4)ccc3n(Cc3cnsc3)c2=O)cn1 [Example 577, N-[1-(Fluoromethyl)cyclopropyl]-1-(isothiazol-4-ylmethyl)-3-[(1-methylpyrazol-4-yl)methyl]-2,4-dioxo-quinazoline-6-sulfonamide]
IC50 (Human Full Length PARG): 24 nM | IC50 (PARG in HeLa cell line): 36 nM

Cc1nc(Cn2c(=O)n(Cc3cnn(C)c3)c(=O)c3cc(S(=O)(=O)NC4(CF)CC4)ccc32)co1 [Example 580, N-[1-(Fluoromethyl)cyclopropyl]-1-[(2-methyloxazol-4-yl)methyl]-3-[(1-methylpyrazol-4-yl)methyl]-2,4-dioxo-quinazoline-6-sulfonamide]
IC50 (Human Full Length PARG): 69 nM | IC50 (PARG in HeLa cell line; Homo sapiens): 46 nM

Cn1cc(Cn2c(=O)c3cc(S(=O)(=O)NC4(CF)CC4)ccc3n(Cc3cscn3)c2=O)cn1 [Example 581, N-[1-(Fluoromethyl)cyclopropyl]-3-[(1-methylpyrazol-4-yl)methyl]-2,4-dioxo-1-(thiazol-4-ylmethyl)quinazoline-6-sulfonamide]
IC50 (Human Full Length PARG): 57 nM | IC50 (PARG in HeLa cell line): 55 nM

Cc1nc(Cn2c(=O)n(Cc3cnn(C)c3)c(=O)c3cc(S(=O)(=O)NC4(CF)CC4)ccc32)cs1 [Example 582, N-[1-(Fluoromethyl)cyclopropyl]-3-[(1-methylpyrazol-4-yl)methyl]-1-[(2-methylthiazol-4-yl)methyl]-2,4-dioxo-quinazoline-6-sulfonamide]
IC50 (Human Full Length PARG): 160 nM | IC50 (PARG in HeLa cell line; Homo sapiens): 73 nM

Cc1nnc(Cn2c(=O)n(Cc3cnn(C)c3)c(=O)c3cc(S(=O)(=O)NC4(CF)CC4)ccc32)s1 [Example 583, N-[1-(Fluoromethyl)cyclopropyl]-3-[(1-methylpyrazol-4-yl)methyl]-1-[(5-methyl-1,3,4-thiadiazol-2-yl)methyl]-2,4-dioxo-quinazoline-6-sulfonamide]
IC50 (Human Full Length PARG): 93 nM | IC50 (PARG in HeLa cell line; Homo sapiens): 153 nM

Cn1cc(Cn2c(=O)c3cc(S(=O)(=O)NC4(CF)CC4)ccc3n(Cc3nncn3C)c2=O)cn1 [Example 584, N-[1-(Fluoromethyl)cyclopropyl]-3-[(1-methylpyrazol-4-yl)methyl]-1-[(4-methyl-1,2,4-triazol-3-yl)methyl]-2,4-dioxo-quinazoline-6-sulfonamide]
IC50 (Human Full Length PARG): 171 nM | IC50 (PARG in HeLa cell line): 25800 nM

Cn1cc(Cn2c(=O)c3cc(S(=O)(=O)NC4(CF)CC4)ccc3n(Cc3ccno3)c2=O)cn1 [Example 585, N-[1-(Fluoromethyl)cyclopropyl]-1-(isoxazol-5-ylmethyl)-3-[(1-methylpyrazol-4-yl)methyl]-2,4-dioxo-quinazoline-6-sulfonamide]
IC50 (Human Full Length PARG): 38 nM | IC50 (PARG in HeLa cell line; Homo sapiens): 52 nM

Cn1cc(Cn2c(=O)c3cc(S(=O)(=O)NC4(CF)CC4)ccc3n(Cc3cc[nH]n3)c2=O)cn1 [Example 586, N-[1-(Fluoromethyl)cyclopropyl]-3-[(1-methylpyrazol-4-yl)methyl]-2,4-dioxo-1-(1H-pyrazol-3-ylmethyl)quinazoline-6-sulfonamide]
IC50 (Human Full Length PARG): 82 nM | IC50 (PARG in HeLa cell line; Homo sapiens): 530 nM

Cn1cc(Cn2c(=O)c3cc(S(=O)(=O)NC4(CF)CC4)ccc3n(Cc3nc[nH]n3)c2=O)cn1 [Example 587, N-[1-(Fluoromethyl)cyclopropyl]-3-[(1-methylpyrazol-4-yl)methyl]-2,4-dioxo-1-(1H-1,2,4-triazol-3-ylmethyl)quinazoline-6-sulfonamide]
IC50 (Human Full Length PARG): 207 nM | IC50 (PARG in HeLa cell line; Homo sapiens): 7980 nM

Cn1cc(Cn2c(=O)c3cc(S(=O)(=O)NC4(CF)CC4)ccc3n(Cc3cncn3C)c2=O)cn1 [Example 588, N-[1-(Fluoromethyl)cyclopropyl]-1-[(3-methylimidazol-4-yl)methyl]-3-[(1-methylpyrazol-4-yl)methyl]-2,4-dioxo-quinazoline-6-sulfonamide]
IC50 (Human Full Length PARG): 19 nM | IC50 (PARG in HeLa cell line; Homo sapiens): 1500 nM

Cn1cc(Cn2c(=O)c3cc(S(=O)(=O)NC4(CF)CC4)ccc3n(Cc3nncs3)c2=O)cn1 [Example 589, N-[1-(Fluoromethyl)cyclopropyl]-3-[(1-methylpyrazol-4-yl)methyl]-2,4-dioxo-1-(1,3,4-thiadiazol-2-ylmethyl)quinazoline-6-sulfonamide]
IC50 (Human Full Length PARG): 55 nM | IC50 (PARG in HeLa cell line; Homo sapiens): 187 nM

Cn1cc(Cn2c(=O)c3cc(S(=O)(=O)NC4(CF)CC4)ccc3n(Cc3cn[nH]c3)c2=O)cn1 [Example 590, N-[1-(Fluoromethyl)cyclopropyl]-3-[(1-methylpyrazol-4-yl)methyl]-2,4-dioxo-1-(1H-pyrazol-4-ylmethyl)quinazoline-6-sulfonamide]
IC50 (Human Full Length PARG): 30 nM | IC50 (PARG in HeLa cell line; Homo sapiens): 773 nM

Cc1cc(Cn2c(=O)n(Cc3cnn(C)c3)c(=O)c3cc(S(=O)(=O)NC4(CF)CC4)ccc32)sn1 [Example 591, N-[1-(Fluoromethyl)cyclopropyl]-1-[(3-methylisothiazol-5-yl)methyl]-3-[(1-methylpyrazol-4-yl)methyl]-2,4-dioxo-quinazoline-6-sulfonamide]
IC50 (Human Full Length PARG): 30 nM | IC50 (PARG in HeLa cell line; Homo sapiens): 32 nM

Cc1n[nH]c(Cn2c(=O)n(Cc3cnn(C)c3)c(=O)c3cc(S(=O)(=O)NC4(CF)CC4)ccc32)n1 [Example 592, N-[1-(Fluoromethyl)cyclopropyl]-3-[(1-methylpyrazol-4-yl)methyl]-1-[(3-methyl-1H-1,2,4-triazol-5-yl)methyl]-2,4-dioxo-quinazoline-6-sulfonamide]
IC50 (Human Full Length PARG): 300 nM | IC50 (PARG in HeLa cell line; Homo sapiens): 11400 nM

Cn1cc(Cn2c(=O)c3cc(S(=O)(=O)NC4(CF)CC4)ccc3n(Cc3cn(C)nn3)c2=O)cn1 [Example 593, N-[1-(Fluoromethyl)cyclopropyl]-3-[(1-methylpyrazol-4-yl)methyl]-1-[(1-methyltriazol-4-yl)methyl]-2,4-dioxo-quinazoline-6-sulfonamide]
IC50 (Human Full Length PARG): 112 nM | IC50 (PARG in HeLa cell line): 523 nM

Cc1ncc(Cn2c(=O)n(Cc3cnn(C)c3)c(=O)c3cc(S(=O)(=O)NC4(CF)CC4)ccc32)s1 [Example 594, N-[1-(Fluoromethyl)cyclopropyl]-3-[(1-methylpyrazol-4-yl)methyl]-1-[(2-methylthiazol-5-yl)methyl]-2,4-dioxo-quinazoline-6-sulfonamide]
IC50 (Human Full Length PARG): 25 nM | IC50 (PARG in HeLa cell line; Homo sapiens): 22 nM

Cn1cc(Cn2c(=O)c3cc(S(=O)(=O)NC4(CF)CC4)ccc3n(Cc3cnn(C)c3)c2=O)cn1 [Example 595, N-[1-(Fluoromethyl)cyclopropyl]-1,3-bis[(1-methylpyrazol-4-yl)methyl]-2,4-dioxo-quinazoline-6-sulfonamide]
IC50 (Human Full Length PARG): 48 nM | IC50 (PARG in HeLa cell line; Homo sapiens): 134 nM

Cn1cc(Cn2c(=O)c3cc(S(=O)(=O)NC4(CF)CC4)ccc3n(Cc3cnn(C)n3)c2=O)cn1 [Example 596, N-[1-(Fluoromethyl)cyclopropyl]-3-[(1-methylpyrazol-4-yl)methyl]-1-[(2-methyltriazol-4-yl)methyl]-2,4-dioxo-quinazoline-6-sulfonamide]
IC50 (Human Full Length PARG): 85 nM | IC50 (PARG in HeLa cell line; Homo sapiens): 96 nM
